Molecules are shown by their SMILES.

The subject of the experiment is 50 cancer cell lines. In words: 50 cell line screen, summary of eradication. It is filed as cell-based. To be noted: out of 50 cell lines. Here is the method:
The 50% inhibitory concentration (IC50) was determined in the cancer cell lines using CellTiter-Glo luminescent cell viability assay after incubation with different concentrations of active agents. Each cell line was treated with active Zn(II) agent, a standard chemotherapy drug as reference control, and culture medium as vehicle control. Procedure for Determining Half Maximal Inhibition Concentration IC50 • 1. Harvested cells during the logarithmic growth period and count cell number using Count-star. • 2. Adjusted cell concentrations to 4.44×10^4 cells/mL with respective culture medium. • 3. Added 90 μL cell suspensions to two 96-well plates (plates A and B) with the final cell density of 4×10^3 cells/well. (cell concentration was adjusted according to the data base or density optimization assay.) • 4a. Next day: For the plates of TO reading: • 1) Added 10 μL culture medium to each well of plate A for TO reading. • 2) Equilibrated the plate and its content at RT for approximately 30 min. • 3) Added 50 μL CellTiter-Glo reagent to each well. • 4) Mixed content for 5 min on an orbital shaker to induce cell lysis. • 5) Allowed the plate to incubate at RT for 20 min to stabilize luminescent signal. • 6) Recorded luminescence (TO) using EnVision Multi Label Reader. • 4b. For the plates of test reading: • 1) Prepared 10× solution of Zn(II) agent test article. […] The formula for calculating surviving rate is shown below and the absolute IC50 (EC50) was calculated according to the dose-response curve generated by GraphPad Prism 5.0. • 12) The surviving rate (%)=(LumTest article−LumMedium control)/(LumNon-treated−LumMedium control)×100%. Stratifying the cell line panel makeup, the 50 cell lines included 30 blood cancers (17 leukemia and 13 lymphoma cell lines) and 20 solid tumor cancers, including breast (3), cervical (1), colorectum (1), liver (4), lung (4), ovarian (2), pancreas (2), prostate (2), and uterine (1) cancer cell lines.

For the compound `N.N.[Cl][Pt][Cl]` [Cisplatin], the “number of cell lines with more than 97% eradication” value amounted to 45, the “number of cell lines with more than 99% eradication” value was determined as 39 and the “number of cell lines with poor response of less than 90% eradication” value was determined as 2.

Source of the values: US20210128609A1, “ONCOLOGY TREATMENTS USING ZINC AGENTS” (XYLONIX IP HOLDINGS PTE. LTD., priority 2018, published 2021).
